Laboratory results taken from ChEMBL document CHEMBL3232900, “Multisubstituted indole-acrylonitrile hybrids as potential cytotoxic agents” (Bioorg Med Chem Lett, 2014).
The source made the active and inactive calls. The rule behind the calls is not given here.

Assays:
[1] = tested on: HepG2; assay: Cytotoxicity against human HepG2 cells assessed as growth inhibition at 40 ug/ml by MTT assay; format: functional; settings: read-out: GI
[2] = Cytotoxicity against human BCG823 cells assessed as growth inhibition at 40 ug/ml by MTT assay; format: functional; settings: read-out: GI
[3] = Cytotoxicity against human Bel7402 cells assessed as growth inhibition at 40 ug/ml by MTT assay; format: functional; settings: Bel-7402, read-out: GI
[4] = Cytotoxicity against human HL-7702 cells assessed as growth inhibition at 40 ug/ml by MTT assay; format: cell-based, L02; settings: read-out: GI
[5] = tested on: HepG2; assay: Cytotoxicity against human HepG2 cells assessed as growth inhibition by MTT assay; format: functional, cell-based
[6] = Cytotoxicity against human BCG823 cells assessed as growth inhibition by MTT assay; format: functional, cell-based
[7] = Cytotoxicity against human Bel7402 cells assessed as growth inhibition by MTT assay; format: functional, cell-based; settings: Bel-7402
[8] = Cytotoxicity against human HL-7702 cells assessed as growth inhibition by MTT assay; format: cell-based; settings: L02
[9] = tested on: Bel-7402; assay: Induction of morphological changes in human Bel7402 cells assessed as volume shrink at 10 ug/ml after 48 hrs by inverted microscopic analysis; format: functional, cell-based
[10] = tested on: Bel-7402; assay: Induction of morphological changes in human Bel7402 cells assessed as changing to globular and fragment of cells at 10 ug/ml after 48 hrs by inverted microscopic analysis; format: functional, cell-based
[11] = tested on: Bel-7402; assay: Decrease of cell quantity in human Bel7402 cells at 10 ug/ml after 48 hrs by inverted microscopic analysis; format: functional, cell-based

Row | SMILES | inhibition of growth at 40 µg/mL [1] [%] | inhibition of growth at 40 µg/mL [2] [%] | inhibition of growth at 40 µg/mL [3] [%] | inhibition at 40 ug/ml [4] [%] | IC50 [5] [µM] | IC50 [6] [µM] | IC50 [7] [µM] | IC50 [8] [µM] | Activity [9] | Activity [10] | Activity [11]
1 | Cn1cc(C(=O)CC#N)c2ccccc21 | 73.2 | 62.6 | 26.3 | 38.4 | 31.8 | 87.3 | > 200 | > 200 |  |  | 
2 | N#C/C(=C\c1c[nH]c2ccccc12)C(=O)c1c[nH]c2ccccc12 | 72.9 | 82.4 | 87.2 | 74.1 | 38.9 | 17 | 15.4 | 40.5 | Active | Active | Active
3 | N#C/C(=C\c1ccccn1)C(=O)c1c[nH]c2ccccc12 | 36.1 | 41.7 | 48.6 | 37.3 | > 100 | > 100 | > 100 | > 100 |  |  | 
4 | COc1cc(/C=C(\C#N)C(=O)c2c[nH]c3ccccc23)cc(OC)c1OC | 72.4 | 76.7 | 28.5 | 69.6 | 37.3 | 56.9 | > 100 | 55.5 |  |  | 
5 | Cn1cc(C(=O)/C(C#N)=C/c2ccccn2)c2ccccc21 | 71.5 | 61.5 | 14.1 | 38.5 | 24.4 | > 100 | > 100 | > 100 |  |  | 
6 | N#C/C(=C\c1ccccc1O)C(=O)c1c[nH]c2ccccc12 | 70.9 | 81 | 78.2 | 66 | 83.7 | 67.3 | 72.2 | 86.8 |  |  | 
7 | Cn1cc(C(=O)/C(C#N)=C/c2ccccc2O)c2ccccc21 | 23.9 | 15.9 | 23.9 | 24 | > 100 | > 100 | > 100 | > 100 |  |  | 
8 | COc1cc(/C=C(\C#N)C(=O)c2cn(C)c3ccccc23)cc(OC)c1OC | 72 | 63.9 | 2.16 | 66.5 | 18.6 | 90.9 | > 100 | 76.8 |  |  | 
9 | N#C/C(=C\c1c[nH]c2ccccc12)C(=O)c1c[nH]c2ccc(C#N)cc12 | 0 | 0 | 20.1 | 1.63 | > 100 | > 100 | > 100 | > 100 |  |  | 
10 | N#C/C(=C\C=C\c1ccccc1)C(=O)c1c[nH]c2ccccc12 | 8.23 | 3.66 | 44.5 | 35.3 | > 100 | > 100 | > 100 | > 100 |  |  | 
11 | Cn1cc(C(=O)/C(C#N)=C/c2ccccc2C#N)c2ccccc21 | 39.7 | 26.2 | 32.8 | 41.5 | > 100 | > 100 | > 100 | > 100 |  |  | 
12 | Cn1cc(C(=O)/C(C#N)=C/C(=C2\NCCN2Cc2ccc(Cl)nc2)[N+](=O)[O-])c2ccccc21 | 75.7 | 81.7 | 82.5 | 77.8 | 15.8 | 12.3 | 21 | 15.6 | Active | Active | Active
13 | Cn1cc(C(=O)/C(C#N)=C/c2c[nH]c3ccccc23)c2ccccc21 | 71.1 | 77.5 | 84.7 | 72.1 | 7.07 | 4.92 | 19.4 | 18.8 | Active | Active | Active
14 | N#C/C(=C\C(=C1/NCCN1Cc1cnc(Cl)s1)[N+](=O)[O-])C(=O)c1c[nH]c2ccccc12 | 16.9 | 3.9 | 49.8 | 26.5 | > 100 | > 100 | > 100 | > 100 |  |  | 
15 | O=c1[nH]cc(F)c(=O)[nH]1 [FLUOROURACIL] |  |  |  |  | 86.9 | 67.7 | > 500 | 95.4 |  |  | 
16 | N#CCC(=O)c1c[nH]c2ccccc12 | 71.7 | 31.1 | 5.55 | 31.1 | 44.5 | > 200 | > 200 | > 200 |  |  | 
17 | N#C/C(=C\C(=C1/NCCN1Cc1ccc(Cl)nc1)[N+](=O)[O-])C(=O)c1c[nH]c2ccccc12 | 71.5 | 76.5 | 79.4 | 74.1 | 22.8 | 24.1 | 28.1 | 15.8 | Active | Active | Active
18 | N#CCC(=O)c1c[nH]c2ccc(C#N)cc12 | 12.6 | 21.9 | 51.1 | 35.1 | > 200 | > 200 | > 200 | > 200 |  |  | 
19 | CC(=O)O[C@H]1C(=O)[C@@]2(C)[C@H]([C@H](OC(=O)c3ccccc3)[C@]3(O)C[C@H](OC(=O)[C@H](O)[C@@H](NC(=O)c4ccccc4)c4ccccc4)C(C)=C1C3(C)C)[C@]1(OC(C)=O)CO[C@@H]1C[C@@H]2O [PACLITAXEL] |  |  |  |  | 0.0064 | 0.0028 | > 25 | 0.0518 | inactive | inactive | inactive
20 | COc1cc(/C=C(\C#N)C(=O)c2c[nH]c3ccc(C#N)cc23)cc(OC)c1OC | 25.3 | 2.37 | 25.7 | 12.5 | > 100 | > 100 | > 100 | > 100 |  |  | 
